The numbers were not newly measured in patent publication US8377476B2, “Butenafine hydrochloride-containing aqueous patch” (Teikoku Seiyaku Co., Ltd., priority 2008, dated 2013), which cites them from elsewhere.

Counter-ions that a name gives are not always drawn. Like-named read-outs stand apart in the source and are kept apart here.

Regarding `CN(Cc1ccc(C(C)(C)C)cc1)Cc1cccc2ccccc12` [butenafine hydrochloride], the Water-solubility entry reads like this: (hydrochloride) “low water-solubility”; (listed as Butenafine hydrochloride) “extremely poor water-solubility”.
